Here are results for 101 molecules from ChEMBL document CHEMBL3507680, “University of Dundee, Gates Library screen for HepG2 cell viability”.

The data set is described as follows: Human HepG2 cell viability assay in 384 well format. Type of data set: toxicity, cell-based. The arrangement: dose 125 nL, time 70.5 hour; concentration not given beside the values. As to conditions: HepG2 cells, read-out: Inhibition.

Regarding `Cc1cccc(CN(Cc2ccccn2)S(=O)(=O)N(C)C)c1`, the cytotoxicity at 70.5 h turned out to be 18.6%.

Take `Fc1ccc(OCCNC2CCN(Cc3ccncc3)CC2)c(F)c1`: the cytotoxicity at 70.5 h was found to be 12.1%.

On to `Cc1cc(NCc2ccc(S(N)(=O)=O)cc2)nc(C)n1`, for which the cytotoxicity at 70.5 h was -13.8%.

For `Cc1nc(C(C)C)sc1C(=O)NCC(C)(C)N1CCOCC1`, the cytotoxicity at 70.5 h was -8.1%.

For `CC(C)C(Sc1nnc(NC2CC2)s1)C(=O)NCc1cccnc1` (stereo unspecified), the cytotoxicity at 70.5 h was -15.5%.

Turning to `CCNc1nnc(SC(C(=O)NCc2cccnc2)C(C)C)s1` (stereo unspecified), the cytotoxicity at 70.5 h is -14.3%.

Turning to `N#Cc1ccc(NC2CCN(CC(F)F)CC2)c(F)c1`, the cytotoxicity at 70.5 h is -15.5%.

On to `N#Cc1ccc(NC2CCN(Cc3ccccn3)CC2)c(F)c1`, for which the cytotoxicity at 70.5 h is -9.28%.

In the case of `CC(C)C(Sc1cccs1)C(=O)NCc1cccnc1` (stereo unspecified), the cytotoxicity at 70.5 h was -14.6%.

In the case of `CSC(C)C(=O)NS(=O)(=O)c1ccc(F)c(C(F)(F)F)c1` (stereo unspecified), the cytotoxicity at 70.5 h came to 22.2%.

As to `O=C(NCCc1nncn1C1CC1)c1cc2ccccn2c1`, the cytotoxicity at 70.5 h was -10.9%.

For the molecule `CC(C)(C)C(CCO)NC(=O)Nc1ccccc1` (stereo unspecified), the cytotoxicity at 70.5 h was -9.49%.

Turning to `COc1ccccc1CN(CC1CCCO1)C(=O)c1csnn1` (stereo unspecified), the cytotoxicity at 70.5 h was -12.2%.

For the molecule `CCN(Cc1ccoc1)C(=O)C1CCN(C(=O)OC(C)(C)C)C1` (stereo unspecified), the cytotoxicity at 70.5 h turned out to be 18.9%.

For `Cc1nc(C2CN(Cc3ccc(F)cc3Br)CCO2)no1` (stereo unspecified), the cytotoxicity at 70.5 h is -5.56%.

As for `CCOCCN1CCN(CCOCC(F)(F)F)CC1`, the cytotoxicity at 70.5 h was -8.54%.

With `CCOCCN(C)C(=O)Nc1cccc2c1CCN(CC)C2`, the cytotoxicity at 70.5 h is 10.2%.

As to `CC(C)CC(NC(=O)CSc1ccc(F)c(Cl)c1)C(=O)O` (stereo unspecified), the cytotoxicity at 70.5 h was -18.4%.

Regarding `O=S(=O)(NCc1ccc(S(=O)(=O)N2CCCC2)s1)c1ccc(Cl)cc1`, the cytotoxicity at 70.5 h is -12.5%.

Regarding `O=S(=O)(NCc1ccc(S(=O)(=O)N2CCCC2)s1)c1ccc(Cl)c(Cl)c1`, the cytotoxicity at 70.5 h was -22.7%.

In the case of `NC(=O)CNC(=O)c1ccc(CNCc2ccc(F)cc2F)cc1`, the cytotoxicity at 70.5 h was -23.7%.

Regarding `NC(=O)CNC(=O)c1ccc(CNCc2ccc(Cl)cc2Cl)cc1`, the cytotoxicity at 70.5 h was -28%.

As for `CN(C(=O)Cn1nnnc1C(C)(C)C)c1ccccc1`, the cytotoxicity at 70.5 h is -19.5%.

In the case of `Cn1c(CCN2CCN(c3ccc(O)cc3)CC2)nc2ccccc21`, the cytotoxicity at 70.5 h worked out at 14.6%.

For `CC(C)c1noc(OCc2cccc(C#N)c2)n1`, the cytotoxicity at 70.5 h was -11.8%.

Regarding `CC(C)c1noc(OCc2cccc(S(=O)(=O)N(C)C)c2)n1`, the cytotoxicity at 70.5 h was -17.9%.

Regarding `O=C(NCCCc1nc(=O)[nH][nH]1)c1ccc(Cl)cn1`, the cytotoxicity at 70.5 h is -15.2%.

Take `Cc1cccc2c1C(=O)NC1(CCOCC1)N2`: the cytotoxicity at 70.5 h was -13.5%.

Take `O=S(=O)(Cc1ccc(F)c(Cl)c1)NCCOc1cccnc1`: the cytotoxicity at 70.5 h amounted to 3.53%.

As to `CCc1nc(CCNc2ccc(S(N)(=O)=O)cc2C#N)cs1`, the cytotoxicity at 70.5 h was -21%.

As to `CNS(=O)(=O)CCCN(C)Cc1cc(C)ccc1OC`, the cytotoxicity at 70.5 h is -13.2%.

Consider `Cc1ccc(SC2CCCC2)c(C(=O)NCc2n[nH]c(=O)[nH]2)c1`, for which the cytotoxicity at 70.5 h was -11.2%.

Regarding `Fc1ccc(C(NCc2nnc(C3CC3)o2)C2CCC2)cc1` (stereo unspecified), the cytotoxicity at 70.5 h was -4.6%.

For `COCC(=O)NC1(c2cccc(C(F)(F)F)c2)CCC1`, the cytotoxicity at 70.5 h was -14.5%.

`CN(CCN1CCOC1=O)CC(=O)Nc1ccc(Cl)c(Cl)c1`: the cytotoxicity at 70.5 h is -20.1%.

`CC(CNC(=O)c1ccn(-c2ccc(F)cc2)n1)Cn1cccn1` (stereo unspecified): the cytotoxicity at 70.5 h was -22.8%.

Turning to `Fc1ccc(C(NCc2nnc(-c3ccco3)o2)C2CCC2)cc1` (stereo unspecified), the cytotoxicity at 70.5 h was -12%.

For `CO[C@H]1CN(C(=O)OC(C)(C)C)CC1NCc1ccco1` (stereo partly specified), the cytotoxicity at 70.5 h is -24.9%.

For the molecule `CO[C@H]1CN(C(=O)OC(C)(C)C)CC1NCc1ccoc1` (stereo partly specified), the cytotoxicity at 70.5 h is -13.8%.

Regarding `CC1CCCN(C(=O)c2ncncc2Cl)C1` (stereo unspecified), the cytotoxicity at 70.5 h turned out to be 12.9%.

Turning to `O=C(c1ccccc1)N1CCCN(C(=O)c2ncncc2Cl)CC1`, the cytotoxicity at 70.5 h turned out to be 15.9%.

With `COCc1ccccc1C(=O)NCCCN1CCCC1C(=O)N(C)C` (stereo unspecified), the cytotoxicity at 70.5 h amounted to 7.28%.

For `COc1ncccc1C(=O)NCC1Cc2ccccc2O1` (stereo unspecified), the cytotoxicity at 70.5 h is -6.43%.

On to `O=C(NCCCn1nc2ccccn2c1=O)NC1CCC(O)CC1` (stereo unspecified), for which the cytotoxicity at 70.5 h amounted to 9.94%.

For the molecule `CC(C)S(=O)(=O)NCC1CCCN(C(=O)c2cccnc2)C1` (stereo unspecified), the cytotoxicity at 70.5 h was -7.06%.

Regarding `Cc1cccc(CNCc2c(C)nn(C)c2N2CCOCC2)n1`, the cytotoxicity at 70.5 h was -2.64%.

For `O=C(CCc1nccs1)N1CCCC(N2CCNC2=O)C1` (stereo unspecified), the cytotoxicity at 70.5 h is 0.762%.

For `Cc1cc(N2CCC(N(C)C(=O)c3ccccc3)CC2)nc(C)n1`, the cytotoxicity at 70.5 h was -0.672%.

For the molecule `CN(C)C(CNC(=O)c1cccc(-n2cnnn2)c1)c1ccccc1Cl` (stereo unspecified), the cytotoxicity at 70.5 h is -2.81%.

On to `Cc1csc(N2CCN(Cc3cnc(C)s3)CC2C)n1` (stereo unspecified), for which the cytotoxicity at 70.5 h was -2.09%.

For `CCc1ccc(C(=O)Nc2ccc(CC3CC(=O)NC3=O)cc2)cc1` (stereo unspecified), the cytotoxicity at 70.5 h is 1.34%.

On to `CCCC(C)(C)NC(=O)c1ccc(CC2CC(=O)NC2=O)cc1` (stereo unspecified), for which the cytotoxicity at 70.5 h came to 0.713%.

For the molecule `Cc1cn(-c2ccccc2)nc1NS(=O)(=O)c1cccc(C(=O)O)c1`, the cytotoxicity at 70.5 h was -1.1%.

Take `CC1CN(C)c2ccccc2CN1C(=O)CSc1ccncc1` (stereo unspecified): the cytotoxicity at 70.5 h was 1.51%.

For the molecule `CCN1CCCC1CN(CCN(C)C)S(=O)(=O)c1ccc(C#N)cc1` (stereo unspecified), the cytotoxicity at 70.5 h was 2.57%.

Turning to `CCN(Cc1cccnc1)CC1CCCO1` (stereo unspecified), the cytotoxicity at 70.5 h was -0.83%.

For the molecule `Cc1cnn(CC2CN(CCc3ccncc3)CCO2)c1` (stereo unspecified), the cytotoxicity at 70.5 h was 0.973%.

As to `Cc1nc(C)n(CC2CN(CCc3ccncc3)CCO2)n1` (stereo unspecified), the cytotoxicity at 70.5 h was -0.163%.

Regarding `C1CCCN(c2nc(C3CC3)ns2)CC1`, the cytotoxicity at 70.5 h came to 15.3%.

For `CCc1nc(C2CCCN2CC(=O)Nc2c(C)nn(C)c2C)no1` (stereo unspecified), the cytotoxicity at 70.5 h is -3.18%.

Turning to `Cc1nc(C)n(CC2CCCN2CC(=O)NCc2ccco2)n1` (stereo unspecified), the cytotoxicity at 70.5 h was -2.21%.

In the case of `Cc1n[nH]c(C)c1C1COCCN1C(=O)Cc1cccc(F)c1` (stereo unspecified), the cytotoxicity at 70.5 h is -4.4%.

On to `Cc1n[nH]c(C)c1C1CCCN1C(=O)NCCSC(C)(C)C` (stereo unspecified), for which the cytotoxicity at 70.5 h is -7.87%.

Turning to `Cc1csc(N2CCN(CCc3ccccn3)CC2C)n1` (stereo unspecified), the cytotoxicity at 70.5 h was -10.7%.

As for `CCCN1CCN(Cc2nccn2CC)C(C)C1` (stereo unspecified), the cytotoxicity at 70.5 h stood at 19.6%.

As for `O=C(C1CCC1)N1CCCC1c1nnc2n1CCCCC2` (stereo unspecified), the cytotoxicity at 70.5 h is 9.95%.

For `O=C(NCCCOCC1CCCO1)c1cccnc1N1CCCC1` (stereo unspecified), the cytotoxicity at 70.5 h was 1.79%.

For `Cc1cccc(N2CCN(CCNC(=O)c3ccnn3C)CC2)c1`, the cytotoxicity at 70.5 h was -9.52%.

Consider `CCN(CC)C(CNC(=O)c1ccc(S(C)(=O)=O)cc1)c1ccco1` (stereo unspecified), for which the cytotoxicity at 70.5 h was -0.309%.

Take `Cc1nc(C)c(C(=O)N2CCCC2c2nnc3n2CCCCC3)s1` (stereo unspecified): the cytotoxicity at 70.5 h was -8.07%.

As to `c1cnn(CC2CN(c3ncnc4ccsc34)CCO2)c1` (stereo unspecified), the cytotoxicity at 70.5 h was -0.0557%.

Consider `COc1cccc(CN2CCOC(Cn3nc(C)cc3C)C2)c1` (stereo unspecified), for which the cytotoxicity at 70.5 h is -6.54%.

In the case of `c1cnn(CC2CN(c3ncnc4sccc34)CCO2)c1` (stereo unspecified), the cytotoxicity at 70.5 h was -4.77%.

As for `Cc1cnn(CC2CN(c3ncnc4ccsc34)CCO2)c1` (stereo unspecified), the cytotoxicity at 70.5 h turned out to be 16%.

Turning to `CC(C)n1cc(CN2CCCN(C(=O)c3ccc[nH]3)CC2)cn1`, the cytotoxicity at 70.5 h is -5.05%.

For the molecule `O=C(CC1CN(Cc2ccccc2)CCO1)Nc1ccccc1F` (stereo unspecified), the cytotoxicity at 70.5 h was -3.6%.

Regarding `CNc1cc(N2CCCC2CNCc2c[nH]nc2C(C)(C)C)ncn1` (stereo unspecified), the cytotoxicity at 70.5 h is 0.0673%.

For `Cn1ccnc1CC1CCCN(C(=O)Nc2cccn(C)c2=O)C1` (stereo unspecified), the cytotoxicity at 70.5 h is -2.41%.

As for `O=C(NCCOc1ncc(Cl)cc1Cl)c1ccncc1`, the cytotoxicity at 70.5 h is 1.47%.

Consider `Cc1ccc(CCNC(=O)N2CCCC(Cc3nccn3C)C2)cn1` (stereo unspecified), for which the cytotoxicity at 70.5 h was determined as 1.34%.

As to `Cc1cccc(N2CCOCC3(C2)CN(c2cncnc2)C(=O)CO3)n1` (stereo unspecified), the cytotoxicity at 70.5 h was -6.08%.

On to `CCOC1CCC2(CCN(C(=O)c3c[nH]cn3)CC2)c2ccccc21` (stereo unspecified), for which the cytotoxicity at 70.5 h was -6.3%.

Turning to `CCc1ccc(NC(=O)N2C[C@H]3C[C@H](C(=O)NC(C)C)[C@@H](C2)O3)cc1`, the cytotoxicity at 70.5 h was -7.8%.

On to `O=C(c1ccc[nH]1)N1CCCn2c(nnc2Cn2cccn2)C1`, for which the cytotoxicity at 70.5 h is -9.08%.

For the molecule `Cc1ncnc2c1CCN(C(=O)N(C)C)CC2`, the cytotoxicity at 70.5 h is -0.115%.

As for `CS(=O)(=O)N1CCO[C@@H]2CN(C(=O)C3CCOC3)CC[C@@H]2C1` (stereo partly specified), the cytotoxicity at 70.5 h was -6.14%.

On to `CS(=O)(=O)N1CCO[C@@H]2CN(C(=O)N3CCOCC3)CC[C@@H]2C1`, for which the cytotoxicity at 70.5 h is -6.09%.

For the molecule `Cc1ccc2c(c1)C(NC1CC1)CC21CCNCC1` (stereo unspecified), the cytotoxicity at 70.5 h stood at 11%.

For the molecule `COc1ccc2c(c1)C1(CCNCC1)CC2NC1CC1` (stereo unspecified), the cytotoxicity at 70.5 h worked out at 27.2%.

As to `Cc1ccc2c(c1)C1(CCNCC1)CC2NC1CC1` (stereo unspecified), the cytotoxicity at 70.5 h came out at 2.66%.

Regarding `CN1CC[C@]2(CN(CC3CCOC3)C[C@H]2c2ccccc2)C1=O` (stereo partly specified), the cytotoxicity at 70.5 h came out at 16.2%.

As to `COc1ncccc1CN1C[C@H]2CCN(c3ccc(C)nn3)C[C@H]2C1`, the cytotoxicity at 70.5 h came to 20%.

For the molecule `c1coc(CN2CCO[C@H]3[C@@H](OCC4CC4)CC[C@@H]32)c1`, the cytotoxicity at 70.5 h was -7.18%.

On to `CN1CC[C@]2(CN(CC3CCOCC3)C[C@H]2c2ccccc2)C1=O`, for which the cytotoxicity at 70.5 h was -7.31%.

With `CC(C)N(C)Cc1cc(=O)n2c(n1)CN(S(=O)(=O)C1CC1)CCC2`, the cytotoxicity at 70.5 h is -7.06%.

Take `CCOCC1c2c(cnn2C)CCN1C(=O)c1cc(C)on1` (stereo unspecified): the cytotoxicity at 70.5 h was 6.2%.

For the molecule `CCC(=O)Nc1ccc2c(c1)C1(CCOCC1)CN2CCF`, the cytotoxicity at 70.5 h worked out at 16.7%.

Take `CC(=O)N1Cc2ccnn2CC(C(=O)NCc2cccnc2)C1` (stereo unspecified): the cytotoxicity at 70.5 h is -6.11%.

For `Cn1cc(CN2CC[C@]3(C[C@H](Oc4ccccn4)CO3)C2)cn1`, the cytotoxicity at 70.5 h is -6.32%.

Turning to `Cn1cc(CN2CCC[C@]3(C[C@H](Oc4ncccc4F)CO3)C2)cn1`, the cytotoxicity at 70.5 h was -5.41%.

For `COCCN1CC[C@@H]2CN(Cc3cccnc3OC)C[C@@H]2C1`, the cytotoxicity at 70.5 h was 13.9%.
